# Source: patent US8431602B2, “Beta-amino acid derivatives for treatment of diabetes” (Merck Patent Gesellschaft mit beschrankter Haftung, priority 2008, dated 2013)
# Target: T1, glucokinase (GK), human enzyme (Homo sapiens, UniProt P35557)
# T1 sequence (P35557 1-465): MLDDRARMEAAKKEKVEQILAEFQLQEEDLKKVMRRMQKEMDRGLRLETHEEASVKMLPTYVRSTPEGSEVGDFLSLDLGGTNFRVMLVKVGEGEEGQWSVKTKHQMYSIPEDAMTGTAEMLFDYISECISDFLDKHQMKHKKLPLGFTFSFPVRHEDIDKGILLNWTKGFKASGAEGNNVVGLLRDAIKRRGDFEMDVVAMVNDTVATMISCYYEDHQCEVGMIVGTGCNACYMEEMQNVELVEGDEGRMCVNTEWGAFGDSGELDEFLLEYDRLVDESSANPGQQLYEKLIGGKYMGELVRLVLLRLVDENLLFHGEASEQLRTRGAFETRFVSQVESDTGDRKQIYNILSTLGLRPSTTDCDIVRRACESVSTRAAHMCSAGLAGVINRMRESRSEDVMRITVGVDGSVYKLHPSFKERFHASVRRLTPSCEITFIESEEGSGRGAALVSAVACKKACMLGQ
# Experiment: Glucokinase Activation Assay (coupled enzyme assay with PK/LDH, NADH decline at 340 nm)
# Assay type: biochemical
# Settings: 2 mM glucose, half maximal effective concentration of activation
# Experimental: Glucokinase Activation Screening Assay
# GK activity (human or rat enzyme) is measured by a coupled enzyme assay using pyruvate kinase (PK) and lactate dehydrogenase (LDH) as coupling enzymes. GK activity is calculated from the decline in NADH monitored photometrically with a microtiter plate (MTP) reader at 340 nm.
# For screening purposes, the GK assay is routinely run in a 384-MTP format, in a total volume of 33 μl/well. 10 μl of the ATP-regeneration solution (in HEPES-buffer*, pH 7.0, 6.73 U/ml pyruvate kinase, 6.8 U/ml lactate dehydrogenase) and 10 μl of the glucokinase-/glucose solution (15 μg/ml, 6.6 mM glucose in HEPES-buffer*, pH 7.0; the concentration of the glucose stock-solution was 660 mM in Millipore H2O) were mixed together with 3 μl of a 10% DMSO solution (in HEPES-buffer*, pH 7.0) containing […] the amounts of the compounds to achieve final compound concentrations in the range between 1 nM to 30 μM (sometimes 300 μM) in the assay solution (s. below). The solutions were mixed for 5 sec, and after a centrifugation at 243×g for 5 min, the solutions were preincubated for 25 min at room temperature. The reaction was started by the addition of 10 μl of the NADH-/ATP-solution (4.29 mM NADH, 4.95 mM ATP, in HEPES-buffer*). The MTP was shaken for 5 sec., and then, the absorbance at 340 nm was monitored continuously in a MTP-reader (TECAN Spectro fluor plus) for the next 27 min (with a MTP-cycling time of 199 sec.). The final concentrations of the various components were as follows: 49.5 mM Hepes, pH 7.0, 1.49 mM PEP, 1.3 mM NADH, 49.5 mM KCl, 4.96 mM MgCl2, 1.5 mM Mg-ATP, 1.98 mM DTT, 2.04 U/ml pyruvate kinase, 2.06 U/ml lactate-dehydrogenase, 0.91% DMSO, 0.15 μg/well glucokinase, and test compounds in the range between 1 nM and 300 μM, The change in the optical density (ΔOD340 nm) in the presence of the compound was expressed relative to the ΔOD340 nm, ctrl of the control incubation (in the presence of 2 mM glucose and 0.91% DMSO), taking into account the optical density of the blank sample (incubation in the absence of 2 mM glucose). For the determination of the half maximal effective concentration (EC50), the %-Ctrl-values were plotted in a semi-logarithmic graph against the cone. of the compound of interest. The data points were fitted to a sigmoid curve function (f(x)=((%-Ctrlmax−%-Ctrlmin)/(1−(EC50/x**^n(Hill)))+%-Ctrlmin)) by a non-linear regression analysis. • Hepes-buffer (50 mM Hepes, pH 7.0, 5 mM MgCl2, 50 mM KCl, 1.5 mM PEP, 0.1% BSA). DTT was added to the Hepes-buffer from a 200× stock solution (in Millipore H2O) freshly each day. The final concentration of DTT in the Hepes-buffer is 2 mM. Culture of Pancreatic INS-1 Cells
row,SMILES,EC50 [µM]
1,"COc1cc(C(CC(=O)Nc2ccc(Cl)cn2)N2Cc3ccccc3C2=O)cc(OC)c1OC (stereo not drawn) [B2, N-(5-Chloro-pyridine-2-yl)-3-(1-oxo-1,3-dihydro-isoindole-2-yl)-3-(3,4,5-trimethoxy-phenyl)-propionamide]",1 to 10
2,"COc1ccc(C(CC(=O)Nc2ccc(Br)cn2)N2Cc3ccccc3C2=O)cc1OC (stereo not drawn) [B5, N-(5-Bromo-pyridine-2-yl)-3-(3,4-dimethoxy-phenyl)-3-(1-oxo-1,3-dihydro-isoindole-2-yl)-propionamide]",> 10
3,"COc1ccc(C(CC(=O)Nc2ccc(Cl)cn2)N2Cc3ccccc3C2=O)cc1OC (stereo not drawn) [B6, N-(5-Chloro-pyridine-2-yl)-3-(3,4-dimethoxy-phenyl)-3-(1-oxo-1,3-dihydro-isoindole-2-yl)-propionamide]",> 10
4,"COc1cc(C(CC(=O)Nc2ccc(C)cn2)N2Cc3ccccc3C2=O)cc(OC)c1OC (stereo not drawn) [B7, N-(5-Methyl-pyridine-2-yl)-3-(1-oxo-1,3-dihydro-isoindole-2-yl)-3-(3,4,5-trimethoxy-phenyl)-propionamide]",1 to 10

# Further lines, results first:
row,EC50 [µM],SMILES
1,1 to 10,"COc1cc(C(CC(=O)Nc2ccc(Cl)cn2)N2Cc3ccccc3C2=O)cc(OC)c1OC (single isomer, unassigned; (+)) [C1, (+)-N-(5-Chloro-pyridine-2-yl)-3-(1-oxo-1,3-dihydro-isoindole-2-yl)-3-(3,4,5-trimethoxy-phenyl)-propionamide]"
2,> 10,"CCOc1ccc(C(CC(=O)Nc2ccc(Cl)cn2)N2Cc3ccccc3C2=O)cc1OC (single isomer, unassigned; (+)) [C4, (+)-N-(5-Chloro-pyridine-2-yl)-3-(4-ethoxy-3-methoxy-phenyl)-3-(1-oxo-1,3-dihydro-isoindole-2-yl)-propionamide]"
3,> 10,"CCOc1ccc(C(CC(=O)Nc2ccc(Cl)cn2)N2Cc3ccccc3C2=O)cc1OC (single isomer, unassigned; (-)) [C5, (−)-N-(5-Chloro-pyridine-2-yl)-3-(4-ethoxy-3-methoxy-phenyl)-3-(1-oxo-1,3-dihydro-isoindole-2-yl)-propionamide]"
4,> 10,"COc1cccc(C(CC(=O)Nc2ccc(Cl)cn2)N2Cc3ccccc3C2=O)c1OC (stereo not drawn) [C3, N-(5-Chloro-pyridine-5-yl)-3-(2,3-dimethoxy-phenyl)-3-(1-oxo-1,3-dihydro-isoindole-2-yl)-propionamide]"
5,> 10,"CCOc1ccc(C(CC(=O)Nc2ccc(Cl)cn2)N2Cc3ccccc3C2=O)cc1OC (stereo not drawn) [C23, N-(5-Chloro-pyridine-2-yl)-3-(4-ethoxy-3-methoxy-phenyl)-3-(1-oxo-1,3-dihydro-isoindole-2-yl)-propionamide]"
